Common to all, as to assay: DTP human tumour cell line panel, 48 h
The subject of assay [1] is NCI/ADR-RES.
In assay [2] the test system is OVCAR-8.
Assay [3] concerns EKVX.
Assay [4] deals with ACHN.
The test system of assay [5] is K562.
Assay [6] deals with MCF7.
The subject of assay [7] is NCI-H522.
The subject of assay [8] is MDA-MB-435.
In assay [9] the test system is SF-539.
Assay [10] deals with T47D.
The subject of assay [11] is SF-295.
Assay [12] has as its system M14.
Assay [13] concerns PC-3.
In assay [14] the test system is SK-OV-3.
Assay [15] concerns SN12C.
The test system of assay [16] is OVCAR-4.
In assay [17] the test system is RPMI-8226.
The subject of assay [18] is Hs-578T.
Assay [19] concerns A498.

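Values below derive from 48-hour exposures of cells grown in 96-well plates, with endpoints linearly interpolated between the two concentrations bracketing the appropriate inhibition level. GI50 = concentration required for 50% inhibition of growth.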 Activity calls are given as the source filed them. Rule as the data show it: active = GI50 up to about 1.1 µM and inactive = higher.

For `Cc1cc(C)c2c(=O)n(CC(O)CN(Cc3ccccc3)CC(O)Cn3sc4nc(C)cc(C)c4c3=O)sc2n1` (stereo unspecified), the GI50 in assay [1] is 22.4 µM (inactive); in assay [2] it was 18.9 µM (inactive); in assay [3], 22.2 µM (inactive); in [4], 16.5 µM (inactive); in assay [5], 24.2 µM (inactive); in assay [6], 17.6 µM (inactive). The GI50 in assay [7] is 10 µM (inactive); in assay [8], 17 µM (inactive); in assay [9] it was 17.7 µM (inactive); in assay [10], 18.2 µM (inactive); in assay [11], 22.1 µM (inactive); in assay [12], 17.4 µM (inactive). Also, the GI50 in assay [13] is 16.8 µM (inactive); in [14], 23.2 µM (inactive); in assay [15], 18.1 µM (inactive); in assay [16] it was 18.1 µM (inactive); in assay [17] it was 3.61 µM (inactive); in assay [18], 18.9 µM (inactive).
For `CC1OC23CCCCC2C(C#N)(C#N)C1(C#N)C(=N)O3` (stereo unspecified), the GI50 in assay [1] is 37.4 µM (inactive); in assay [2] it was 20.7 µM (inactive); in [19], 27.2 µM (inactive); in assay [3], 28.6 µM (inactive); in [4], 19.9 µM (inactive); in assay [5] it was 13.7 µM (inactive). Besides, the GI50 in assay [6] is 20.7 µM (inactive); in assay [8] it was 20.8 µM (inactive); in [9] it was 21.8 µM (inactive); in assay [10], 18.7 µM (inactive); in assay [11], 70 µM (inactive); in assay [12], 20.1 µM (inactive). Also, the GI50 in [13] was 24.4 µM (inactive); in assay [14], > 100 µM (inactive); in assay [15], 15.3 µM (inactive); in [18], 21.8 µM (inactive).
`Brc1ccc(C2CC3(c4ccccc4)ON=C(c4ccccc4)N3c3ccccc3S2)cc1` (stereo unspecified): the GI50 in assay [1], in [2], in [19], in assay [3], in assay [4] and in assay [5] was > 100 µM (inactive) throughout. The GI50 in assay [6], in [7], in [8], in assay [9], in assay [10] and in assay [11] was > 100 µM (inactive) throughout. For the same molecule, the GI50 in assay [12], in assay [13], in [14], in assay [15], in assay [16] and in assay [18] was > 100 µM (inactive) each time.
Take `COC(=O)NC(Nc1ccc(C)cc1)(C(F)(F)F)C(F)(F)F`: the GI50 in assay [1], in assay [2], in [19], in [3], in assay [4] and in assay [5] was > 100 µM (inactive) in each case. The GI50 in assay [6], in assay [7], in [8], in [9], in [10] and in [11] was > 100 µM (inactive) in each case. The GI50 in assay [12], in assay [13], in [14], in assay [15], in assay [17] and in assay [18] was > 100 µM (inactive) in each case.
With `COc1ccccc1C1Nn2c(nc3ccccc3c2=O)N1c1ccc(C)cc1` (stereo unspecified), the GI50 is 9.06 µM (inactive) in assay [1]; 5.11 µM (inactive) in [2]; 11.4 µM (inactive) in assay [3]; 4 µM (inactive) in assay [4]; 7.83 µM (inactive) in assay [5]; 6.49 µM (inactive) in [6]. The GI50 in assay [7] was 7.8 µM (inactive); in [8], 8.2 µM (inactive); in assay [9], 3.51 µM (inactive); in [10], 4.82 µM (inactive); in assay [11] it was 4.94 µM (inactive); in assay [12], 10.5 µM (inactive). Also, the GI50 in [13] is 2.71 µM (inactive); in assay [14], 3.72 µM (inactive); in assay [15], 5.87 µM (inactive); in [16], 3.08 µM (inactive); in assay [17] it was 3.72 µM (inactive); in [18], 10 µM (inactive).
As to `CCOC(=O)CCC1(CCC(=O)OCC)CCCCCCCCC(CCC(=O)OCC)(CCC(=O)OCC)C(=O)C1=O`, the GI50 in [1], in assay [2], in assay [19], in assay [3], in assay [4] and in assay [5] was > 100 µM (inactive) in each case. Also, the GI50 is > 100 µM (inactive) in [6]; 35.5 µM (inactive) in assay [7]; > 100 µM (inactive) in [8]; > 100 µM (inactive) in [9]; 79.1 µM (inactive) in assay [10]; > 100 µM (inactive) in [11]. The GI50 in assay [12], in assay [13], in assay [14], in assay [15], in assay [16] and in assay [18] was > 100 µM (inactive) each time.
For `Nc1cc(OCc2ccccc2)c(OCc2ccccc2)cc1C=O`, the GI50 was 33 µM (inactive) in [1]; 26.4 µM (inactive) in [2]; 11.6 µM (inactive) in assay [19]; 24.4 µM (inactive) in [3]; 26 µM (inactive) in assay [4]; 44.4 µM (inactive) in assay [5]. The GI50 was 36.7 µM (inactive) in assay [6]; 0.141 µM (active) in assay [7]; 39.8 µM (inactive) in [8]; 5.83 µM (inactive) in assay [9]; 21.1 µM (inactive) in assay [10]; 31.4 µM (inactive) in assay [11]. Further, the GI50 was 35.1 µM (inactive) in assay [13]; 52.5 µM (inactive) in assay [14]; 28.1 µM (inactive) in assay [15]; 27 µM (inactive) in assay [17]; 42.4 µM (inactive) in assay [18].
On to `N=C(N)NS(=O)(=O)c1ccc(Nc2c3ccccc3nc3ccc(C(=O)Nc4ccc(S(N)(=O)=O)cc4)cc23)cc1`, for which the GI50 in assay [1], in assay [2], in [3], in assay [4], in [5] and in [6] was > 100 µM (inactive) each time. The GI50 in [7], in assay [8], in [9], in assay [10], in [11] and in assay [12] was > 100 µM (inactive) in each case. Moreover, the GI50 in [13], in [14], in [15], in [16], in assay [17] and in assay [18] was > 100 µM (inactive) each time.

The values are drawn from ChEMBL document CHEMBL1201862, “PubChem BioAssay data set” (2004).
